Here are results for two compounds from article PMC11434868, “Synthesis and Antiproliferative Effect of 3,4,5-Trimethoxylated Chalcones on Colorectal and Prostatic Cancer Cells” (Pharmaceuticals, 2024).

The subject of assay [1] is caspase-3 and PARP in HT-29 cells. Nature of the assay: Western blot of apoptosis-related proteins in HT-29.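 Note: compared with untreated control cells.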 The format is cell-based, human. Conditions: HT-29, 48 h. As for the experimental part: For total protein extraction, collected samples of each condition were washed in PBS. Then, the total cell pool was centrifuged at 200 g for 5 min at 4 °C and homogenized in RIPA lysis buffer (50 mM HEPES, pH 7.5, 150 mM NaCl, 1% sodium deoxycholate, 1% NP-40, 0.1% SDS, […] of aprotinin) containing protease inhibitors according to the manufacturer’s instructions. After quantification of protein levels using the Bradford method, proteins ([…]) were separated on 12.5% SDS-PAGE gels and transferred to PVDF membranes (GE Healthcare Life Science—Fisher Scientific). Membranes were probed with respective antibodies against human caspase-3, cleaved caspase-3, and PARP according to the manufacturer’s instructions. After incubation with appropriate secondary antibodies, blots were developed using the “ImmobilonWestern” substrate, following the manufacturer’s protocol, and G:BOX system (Syngene, Cambridge, UK). Membranes were then reblotted with human anti-β-actin used as a loading control.
For orientation: In western blotting, separated proteins are transferred to a membrane and probed.

Assay [2] has as its system human PCa (DU145 and PC3) cell lines. Put plainly: MTT assay, summary statements for PCa cells. The format is cell-based. Conditions: Homo sapiens, DU-145, DU145 and PC3, text summary; read-out: IC50 towards PCa cells. As for the experimental part:
Human CRC (HCT116 and HT-29) and PCa (DU145 and PC3) cell lines were purchased from the American Type Culture Collection (ATCC—LGC Standards, Molsheim, France). All cells were grown in RPMI 1640 medium supplemented with 10% FBS, 1% L-glutamine, 100 U/mL penicillin, and 100 μg/mL streptomycin. Cultures were maintained in a humidified atmosphere containing 5% CO2 at 37 °C. Cells were seeded in 75 cm^2 culture flasks at 1.2 × 10^4 cells/cm^2 for HCT116, DU145, and PC3 cells, and 2.0 × 10^4 for HT-29 cells. Cells were grown for 24 h in culture medium prior to exposure or not to obtain the synthesized compounds. Stock solutions (10^−2 M in DMSO) of each compound were diluted in culture medium to obtain appropriate final concentrations.
• (a) MTT assay: The antiproliferative effect of all compounds was determined using MTT assay (a metabolic activity test). Briefly, cells were seeded in 96-well culture plates at 4 × 10^3 cells/well for HCT116, PC3, and DU145 cells and 6 × 10^3 cells/well for HT-29 cells (100 µL/well), and grown for 24 h in culture medium prior to exposure or not to obtain compounds 1–15 with concentrations ranging from 5 nM to 50 μM. After 24 and 48 h of treatment, MTT (5 mg/mL in PBS) was added and incubated for another 3 h. MTT was then removed from the wells before adding 100 μL/well of DMSO. The optical density was detected with a microplate reader (Multiskan FC, Thermoscientific, Bordeaux, France) at 550 nm and cell viability was expressed as a percentage of each treatment condition compared to control cells. IC50 values were calculated for all compounds from the dose–response curve. Data are expressed as the arithmetic means ± standard error of the mean (SEM) of separate experiments. All experiments were performed at least in triplicate. • (b) Trypan blue dye exclusion method: Cells were grown for 24 h then treated with compounds 10 and 13 at indicated concentrations. After 48 h of treatment, cells were trypsinized and resuspended in complete medium. Each sample was mixed with Trypan blue solution (0.14% in HBSS, Invitrogen-GIBCO, ThermoFisher, Illkirch, France). Colored (non-viable) and dye-excluding (viable) cells were counted with the LUNA-II automated cell Counter (Logos Biosystems; MC2, Aubière, France). The control was normalized to 100% including viable and dead cells. The results indicated on the histograms were expressed as the percentage of cells compared to the control. IC50 values were determined from the percentages of viable cells compared to the control.

As a reminder, the IC50 is the concentration at which inhibition is half-maximal. Regarding `COc1cc(C(=O)/C=C/c2c[nH]c3ccccc23)cc(OC)c1OC` [chalcone 10, (E)-3-(1H-indol-3-yl)-1-(3,4,5-trimethoxyphenyl)prop-2-en-1-one], in assay [1], the “PARP cleavage (89 kDa fragment)” value was “induced PARP cleavage”, the “cleaved caspase-3” value is on record as “more weakly produced”, the “native PARP expression” value was “strong decreased expression” and the pro-caspase-3 expression entry is “decreased”. Moreover, the IC50 in assay [2] is 17 to 31 nM.
Turning to `COc1cc(C(=O)/C=C/c2coc3ccc(C)cc3c2=O)cc(OC)c1OC` [chalcone 13, (E)-6-methyl-3-(3-oxo-3-(3,4,5-trimethoxyphenyl)prop-1-en-1-yl)-4H-chromen-4-one], in assay [1], the “PARP cleavage (89 kDa fragment)” value is “clearly observed”, the “cleaved caspase-3” value is “clearly observed”, the “native PARP expression” value is given as “strong decreased expression” and the pro-caspase-3 expression result was “decreased”.
